The text below walks through data of patent publication US9637453B2, “3-spirocyclic-6-hydroxamic acid tetralins as HDAC inhibitors” (Forma Therapeutics, Inc., priority 2015, dated 2017).

For assay [1], the target named is T1, Full length human recombinant HDAC6 (Homo sapiens, UniProt Q9UBN7).
T1 construct: Full length human recombinant HDAC6 and HDAC11 proteins were expressed in baculoviral system
T1 sequence (Q9UBN7 1-1215): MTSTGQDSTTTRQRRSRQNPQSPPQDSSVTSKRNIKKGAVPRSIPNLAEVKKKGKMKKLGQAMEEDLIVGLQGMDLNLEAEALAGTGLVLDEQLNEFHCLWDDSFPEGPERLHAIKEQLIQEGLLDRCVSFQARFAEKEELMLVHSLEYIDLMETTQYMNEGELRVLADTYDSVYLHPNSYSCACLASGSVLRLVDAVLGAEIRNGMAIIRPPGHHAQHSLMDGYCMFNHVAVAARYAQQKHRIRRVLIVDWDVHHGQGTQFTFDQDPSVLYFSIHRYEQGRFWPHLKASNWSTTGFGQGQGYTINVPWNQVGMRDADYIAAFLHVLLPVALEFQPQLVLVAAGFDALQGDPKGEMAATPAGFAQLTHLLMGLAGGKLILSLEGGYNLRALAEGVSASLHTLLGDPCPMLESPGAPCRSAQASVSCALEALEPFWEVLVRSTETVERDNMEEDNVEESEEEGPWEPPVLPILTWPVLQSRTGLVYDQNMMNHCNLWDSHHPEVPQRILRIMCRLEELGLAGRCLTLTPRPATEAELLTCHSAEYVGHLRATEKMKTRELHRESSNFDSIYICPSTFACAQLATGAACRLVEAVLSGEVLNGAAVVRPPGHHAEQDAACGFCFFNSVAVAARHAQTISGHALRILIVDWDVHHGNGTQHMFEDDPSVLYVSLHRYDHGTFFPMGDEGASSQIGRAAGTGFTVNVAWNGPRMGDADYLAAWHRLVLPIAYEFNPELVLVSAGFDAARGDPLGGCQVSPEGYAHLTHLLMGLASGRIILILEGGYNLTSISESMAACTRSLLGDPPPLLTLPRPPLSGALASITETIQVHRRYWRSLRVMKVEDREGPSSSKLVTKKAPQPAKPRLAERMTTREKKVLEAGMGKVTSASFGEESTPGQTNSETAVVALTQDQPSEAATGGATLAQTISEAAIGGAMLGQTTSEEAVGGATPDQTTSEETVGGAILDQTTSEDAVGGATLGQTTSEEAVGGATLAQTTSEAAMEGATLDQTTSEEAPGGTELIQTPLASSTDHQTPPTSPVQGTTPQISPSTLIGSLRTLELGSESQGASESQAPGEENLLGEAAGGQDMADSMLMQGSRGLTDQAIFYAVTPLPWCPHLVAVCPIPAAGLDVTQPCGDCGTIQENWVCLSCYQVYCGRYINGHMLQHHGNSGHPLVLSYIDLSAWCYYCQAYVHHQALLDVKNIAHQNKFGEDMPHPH
Nature of the assay: In vitro histone deacetylase assay, enzymatic HDAC6 (electrophoretic mobility shift assay). The assay is classed as biochemical. As to conditions: 1 nM HDAC6; 2 μM peptide substrate FAM-RHKK(Ac)—NH2; 25° C.; 12 concentrations; read-out: HDAC6 Activity Range (IC50). In a few lines:
(§1)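 Baculovirus-expressed full-length enzymes (HDAC6 1 nM, FAM-RHKK(Ac)-NH2; HDAC11 10 nM, FAM-RHKK(tri-fluor-Ac)-NH2), 2 μM substrate, HEPES pH 7.5, 25°C, 12-point 3× dilutions. Product/substrate separated by microfluidic mobility shift after SDS quench; IC50 from 4-parameter fit, reported as +/++/+++ bins.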
Background: Mobility shift assays separate free from complexed probe on a gel.

In assay [2] the target is T2, Full length human recombinant HDAC11 (Homo sapiens, UniProt Q96DB2).
T2 construct: Full length human recombinant HDAC6 and HDAC11 proteins were expressed in baculoviral system
T2 sequence (Q96DB2 1-347): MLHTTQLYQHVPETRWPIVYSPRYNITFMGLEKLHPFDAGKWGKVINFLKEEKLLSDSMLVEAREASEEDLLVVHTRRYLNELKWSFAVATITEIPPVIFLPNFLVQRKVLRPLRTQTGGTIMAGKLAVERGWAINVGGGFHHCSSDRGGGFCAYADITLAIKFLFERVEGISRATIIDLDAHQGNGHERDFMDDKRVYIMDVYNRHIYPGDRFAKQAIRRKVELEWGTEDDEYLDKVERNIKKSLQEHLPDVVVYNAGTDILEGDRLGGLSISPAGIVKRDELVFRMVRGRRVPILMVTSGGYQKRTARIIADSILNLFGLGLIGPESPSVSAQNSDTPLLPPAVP
The assay is described as follows: In vitro histone deacetylase assay, enzymatic HDAC11 (electrophoretic mobility shift assay). The assay is classed as biochemical. As to conditions: 10 nM HDAC11; 2 μM peptide substrate FAM-RHKK(tri-fluor-Ac)—NH2; 25° C.; 12 concentrations; read-out: HDAC11 Activity Range (IC50). In a few lines:
as §1

A value given as a limit tells only on which side of the number the result lay.

A word on the IC50: it is the concentration at which inhibition is half-maximal. For `O=C(NO)c1ccc2c(c1)C[C@]1(CC2)CCN(Cc2cccc(F)c2)C1=O` [Compound I-99, (R)-1′-(3-fluorobenzyl)-N-hydroxy-2′-oxo-3,4-dihydro-1H-spiro[naphthalene-2,3′-pyrrolidine]-7-carboxamide], the half-maximal inhibitory concentration (IC50) in assay [1] and in assay [2] was ≤ 100 nM each time.

`O=C(NO)c1ccc2c(c1)C[C@]1(CC2)CCN(Cc2ccc(OC(F)(F)F)cc2)C1=O` [Compound I-100, (R)—N-hydroxy-2′-oxo-1′-(4-(trifluoromethoxy)benzyl)-3,4-dihydro-1H-spiro[naphthalene-2,3′-pyrrolidine]-7-carboxamide]: the IC50 in assay [1] and in assay [2] was ≤ 100 nM in each case.

Regarding `O=C(NO)c1ccc2c(c1)C[C@]1(CC2)CCN(Cc2cccc(Cl)c2)C1=O` [Compound I-101, (R)-1′-(3-chlorobenzyl)-N-hydroxy-2′-oxo-3,4-dihydro-1H-spiro[naphthalene-2,3′-pyrrolidine]-7-carboxamide], the IC50 in assay [1] and in assay [2] was ≤ 100 nM each time.

On to `COc1ccc(CN2CC[C@]3(CCc4ccc(C(=O)NO)cc4C3)C2=O)cc1` [Compound I-102, (R)—N-hydroxy-1′-(4-methoxybenzyl)-2′-oxo-3,4-dihydro-1H-spiro[naphthalene-2,3′-pyrrolidine]-7-carboxamide], for which the IC50 in assay [1] and in assay [2] was ≤ 100 nM in each case.

Consider `O=C(NO)c1ccc2c(c1)C[C@]1(CC2)CCN(Cc2ccccc2F)C1=O` [Compound I-103, (R)-1′-(2-fluorobenzyl)-N-hydroxy-2′-oxo-3,4-dihydro-1H-spiro[naphthalene-2,3′-pyrrolidine]-7-carboxamide], for which the IC50 in assay [1] and in assay [2] was ≤ 100 nM each time.

On to `O=C(NO)c1ccc2c(c1)C[C@]1(CC2)CCN(Cc2ccc3ccccc3c2)C1=O` [Compound I-104, (R)—N-hydroxy-1′-(naphthalen-2-ylmethyl)-2′-oxo-3,4-dihydro-1H-spiro[naphthalene-2,3′-pyrrolidine]-7-carboxamide], for which the IC50 in assay [1] and in assay [2] was ≤ 100 nM each time.

For the compound `O=C(NO)c1ccc2c(c1)C[C@]1(CC2)CCN(Cc2ccccc2OC(F)F)C1=O` [Compound I-105, (R)-1′-(2-(difluoromethoxy)benzyl)-N-hydroxy-2′-oxo-3,4-dihydro-1H-spiro[naphthalene-2,3′-pyrrolidine]-7-carboxamide], the IC50 in assay [1] and in assay [2] was ≤ 100 nM throughout.

Turning to `O=C(NO)c1ccc2c(c1)C[C@]1(CC2)CCN(c2ccc(Oc3ccccc3)cc2)C1=O` [Compound I-106, (R)—N-hydroxy-2′-oxo-1′-(4-phenoxyphenyl)-3,4-dihydro-1H-spiro[naphthalene-2,3′-pyrrolidine]-7-carboxamide], the IC50 in assay [1] and in assay [2] was ≤ 100 nM throughout.

Take `O=C(NO)c1ccc2c(c1)C[C@]1(CC2)CCN(c2cnc3ccccc3c2)C1=O` [Compound I-107, (R)—N-hydroxy-2′-oxo-1′-(quinolin-3-yl)-3,4-dihydro-1H-spiro[naphthalene-2, 3′-pyrrolidine]-7-carboxamide]: the IC50 in assay [1] and in assay [2] was ≤ 100 nM each time.

Regarding `O=C(NO)c1ccc2c(c1)C[C@]1(CC2)CCN(c2cccc3c2OCC3)C1=O` [Compound I-108, (R)-1′-(2,3-dihydrobenzofuran-7-yl)-N-hydroxy-2′-oxo-3,4-dihydro-1H-spiro[naphthalene-2,3′-pyrrolidine]-7-carboxamide], the half-maximal inhibitory concentration (IC50) in assay [1] was ≤ 100 nM; in assay [2] it was > 500 nM.

For the compound `Cc1nn(C)cc1N1CC[C@]2(CCc3ccc(C(=O)NO)cc3C2)C1=O` [Compound I-109, (R)-1′-(1,3-dimethyl-1H-pyrazol-4-yl)-N-hydroxy-2′-oxo-3,4-dihydro-1H-spiro[naphthalene-2,3′-pyrrolidine]-7-carboxamide], the IC50 in assay [1] was ≤ 100 nM; in assay [2], > 500 nM.
